Data as given in ChEMBL document CHEMBL1201862, “PubChem BioAssay data set” (2004).
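96-well plates; 48 h exposure; 5 concentrations. Endpoints by linear interpolation between flanking doses. Not reached: highest tested concentration assigned. Here, GI50 denotes the concentration required for 50% inhibition of growth.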 Activity calls are given as the source filed them. Cut-off read from the data, not from the text of the source: active = GI50 up to about 1.1 µM and inactive = higher.

Tests used:
Assay in all cases: growth of human tumour cells (NCI), 48 h
[1] = test system: SF-295
[2] = test system: OVCAR-3
[3] = test system: MOLT-4
[4] = test system: COLO 205
[5] = test system: CAKI-1
[6] = test system: MDA-MB-231
[7] = test system: HL-60
[8] = test system: 786-0
[9] = test system: SK-MEL-5
[10] = test system: HOP-62
[11] = test system: PC-3
[12] = test system: K562
[13] = test system: T47D
[14] = test system: OVCAR-5
[15] = test system: HCC 2998
[16] = test system: LOX IMVI
[17] = test system: SNB-19
[18] = test system: OVCAR-8
[19] = test system: HOP-92
[20] = test system: OVCAR-4

Compound	GI50 [1]	GI50 [2]	GI50 [3]	GI50 [4]	GI50 [5]	GI50 [6]	GI50 [7]	GI50 [8]	GI50 [9]	GI50 [10]	GI50 [11]	GI50 [12]	GI50 [13]	GI50 [14]	GI50 [15]	GI50 [16]	GI50 [17]	GI50 [18]	GI50 [19]	GI50 [20]
COc1c(-c2cccs2)oc2c(CC(=O)O)cccc2c1=O	> 100 µM (inactive)	> 100 µM (inactive)	56.9 µM (inactive)	> 100 µM (inactive)	> 100 µM (inactive)	> 100 µM (inactive)	0.0702 µM (active)	> 100 µM (inactive)	> 100 µM (inactive)	1.2 µM (inactive)	> 100 µM (inactive)	> 100 µM (inactive)	> 100 µM (inactive)	> 100 µM (inactive)	> 100 µM (inactive)					
COc1ccccc1NCc1nnc(CCCCCCCCc2nnc(CNc3ccccc3OC)o2)o1	> 100 µM (inactive)	> 100 µM (inactive)	> 100 µM (inactive)	> 100 µM (inactive)	> 100 µM (inactive)	> 100 µM (inactive)		> 100 µM (inactive)	> 100 µM (inactive)	> 100 µM (inactive)	> 100 µM (inactive)	> 100 µM (inactive)	> 100 µM (inactive)	> 100 µM (inactive)	> 100 µM (inactive)	> 100 µM (inactive)	> 100 µM (inactive)	> 100 µM (inactive)	> 100 µM (inactive)	> 100 µM (inactive)
COC(=O)C1C(OS(=O)(=O)O)CCC2CN3CCc4c([nH]c5ccccc45)C3CC21 (stereo unspecified)	> 100 µM (inactive)	> 100 µM (inactive)	> 100 µM (inactive)	> 100 µM (inactive)	> 100 µM (inactive)	> 100 µM (inactive)	> 100 µM (inactive)	> 100 µM (inactive)	> 100 µM (inactive)	> 100 µM (inactive)	> 100 µM (inactive)	> 100 µM (inactive)	> 100 µM (inactive)	> 100 µM (inactive)		> 100 µM (inactive)	> 100 µM (inactive)	> 100 µM (inactive)	> 100 µM (inactive)	> 100 µM (inactive)
COc1ccc2c(c1)c1c(n2CCN2CCCCC2)-c2ccccc2CC1	14.8 µM (inactive)	18.3 µM (inactive)	14.6 µM (inactive)	13.6 µM (inactive)	11.8 µM (inactive)	16.4 µM (inactive)		18.6 µM (inactive)	15.9 µM (inactive)	18.6 µM (inactive)	13.6 µM (inactive)	8.99 µM (inactive)	15.1 µM (inactive)	16.9 µM (inactive)	6.78 µM (inactive)	21.3 µM (inactive)	16.6 µM (inactive)	14.9 µM (inactive)	15.8 µM (inactive)	16.6 µM (inactive)
CC(C)(C)C(=O)OCC1CCC[N+]2(C)CCCCC12 (stereo unspecified)	> 100 µM (inactive)	> 100 µM (inactive)	> 100 µM (inactive)	> 100 µM (inactive)	> 100 µM (inactive)	> 100 µM (inactive)		> 100 µM (inactive)	> 100 µM (inactive)	> 100 µM (inactive)	> 100 µM (inactive)	> 100 µM (inactive)	> 100 µM (inactive)	> 100 µM (inactive)	> 100 µM (inactive)	> 100 µM (inactive)	> 100 µM (inactive)	> 100 µM (inactive)	> 100 µM (inactive)	> 100 µM (inactive)
COc1ccc2cc1Oc1ccc(cc1)C(Sc1ccccc1)CCOC(=O)CC2 (stereo unspecified)	> 100 µM (inactive)	> 100 µM (inactive)	> 100 µM (inactive)	> 100 µM (inactive)	> 100 µM (inactive)	54 µM (inactive)	28.1 µM (inactive)	> 100 µM (inactive)	63.1 µM (inactive)	> 100 µM (inactive)	> 100 µM (inactive)	82.8 µM (inactive)	11.5 µM (inactive)	> 100 µM (inactive)	> 100 µM (inactive)	> 100 µM (inactive)	> 100 µM (inactive)	> 100 µM (inactive)		> 100 µM (inactive)
COc1ccc2c(c1)CC1COc3cc(OC)ccc3C1O2 (stereo unspecified)	77.3 µM (inactive)	> 100 µM (inactive)	> 100 µM (inactive)	> 100 µM (inactive)	> 100 µM (inactive)	> 100 µM (inactive)		38.1 µM (inactive)	72.3 µM (inactive)	> 100 µM (inactive)	79.8 µM (inactive)		> 100 µM (inactive)	> 100 µM (inactive)	> 100 µM (inactive)	> 100 µM (inactive)		71.8 µM (inactive)	> 100 µM (inactive)	
